According to patent publication US6710060B2, “4-hydroxypiperidine derivatives having antiarrhythmic activity” (Mochida Pharmaceutical Co., Ltd., priority 1999, dated 2004):
Counter-ions that a name gives are not always drawn.

What was measured:
[1] = tested on: isolated cardiac muscle cells; assay: Suppression activity of veratrine-induced contracture of isolated cardiac muscle; assay type: cell-based; settings: Cardiac muscle cell, 5 min; rat isolated cardiac muscle cells, veratrine 100 gg/mL, 5 minutes after addition, probit analysis; read-out: IC50 (concentration of the test compound when half of the cells were contracted)
Description: [Suppression Activity of Veratrine-Induced Contracture of Isolated Cardiac Muscle]
Rats were anesthetized with 40 mg/kg (i.p.) of pentobarbital sodium and held in supine postion, and heparin was injected through the jugular vein. […] A polyethylene tube filled with Krebs-Ringer-HEPES (KRH) solution (pH 7.4) containing 1 mM CaCl2 was inserted through the aorta in retrograde manner, and the tube was fixed. The heart was extracted simultaneously with perfusion of the KRH solution at a hydraulic pressure of 70 cm water column. After thoroughly flushing the remaining blood by spontaneous contraction of the heart, stroke of the heart was halted by perfusion of the Ca^2+ free KRH solution for 10 minutes. The perfusion solutions described above were used after oxygenation with a mixed gas containing 95% O2 and 5% CO2 and keeping at a temperature of 37° C. Then, a KRH solution containing 25 μM CaCl2, 0.06% collagenase and 0.1% albumin was perfused for 20 minutes at 37° C. until the heart was soften. The ventricles were cut into pieces in the collagenase solution at 37° C., followed by an enzyme treatment for 10 minutes while aerating the solution with the mixed gas of 95% O2/5% CO2. The cells were dispersed by pipetting, and connective tissues were removed from the dispersed cells by filtering with a stainless steel mesh. After halting the enzyme reaction by adding albumin in the filtrate, the supernatant was discarded by centrifugation. The cells were suspended in the KRH solution containing 25 μM CaCl2 and 1% albumin, and the Ca^2+ concentration was increased stepwise by sequentially adding the CaCl2 solution in the suspension to a final concentration of 0.5 mM. A pellet of the cells was obtained by centrifugation after allowing the suspension to stand for 10 minutes. The pellet of the cells was laid on a column (10 cm in height and 15 mm in diameter) filled with the KRH solution containing 1 mM CaCl2 and 2% albumin, and the column was allowed to stand for 5 to 10 minutes. The supernatant was gently removed, and the number of rod-shaped cells in the precipitated cells was counted. The cells were re-suspended in the KRH solution containing 1 mM CaCl2 and 0.1% albumin, and pipetted into each well of a 48 well multi-plate (3548, COSTER) coated with poly-L-lysine so that each well contains 0.5 mL of the cell suspension with 1×10^4 cells/well. The suspension in each well was aerated with a mixed gas of 95% O2/5% CO2 at 37° C. for 1 hour to allow the cells to adhere on the bottom of the well. […] Then, the medium was replaced with a KRH solution containing a test compound, 0.025% lactic acid and 1 mM CaCl2, followed by aerating with a mixed gas containing 95% O2/5% CO2 at 37° C. for 30 minutes. After taking a photograph under a microscope, a KRH solution containing veratrine, 0.025% lactic acid and 1 mM CaCl2 was added to each well so that the final concentration of veratrin becomes 100 gg/mL, followed by taking a photograph of morphological changes of the cells after 5 minutes passed from the addition. A change from the rod-shape cell to a spherical cell was defined as contraction by veratrine. Veratrine in this concentration can contract all the cells. The concentration of the test compound when half of the cells were contracted was defined as IC50 (μmol/L) that can be calculated by a probit analysis.

[2] = tested on: Electrocardiogram in Rats; assay: Effect on electrocardiogram in rats; assay type: in vivo; settings: 5 mg/kg intravenous, anesthetized rat, two minutes after administration
Description: [Effect on Electrocardiogram in Rats]
After anesthetizing with 1.5 g/kg (s.c.) of urethane, a rat was fixed on a warm plate at its supination. Polyethylene tubes for administering a test compound and for measuring the blood pressure were inserted into and fixed to the jugular vein and femoral artery, respectively. The blood pressure of the artery was measured using a pressure transducer. An electrode was attached to the animal, electrocardiograms were led by the standard lead II. The heart rate was measured by using a heart rate counter. The test compound was given by intravenous injection when the blood pressure and heat rate had been stabilized after the operation. […] Each parameter on the electrocardiogram was processed using an analysis software running on the personal computer to calculate the rate of change as compared with that before administration.

[3] = tested on: Ischemia-Reperfusion Induced Arrythmia Model in Rats; assay: Suppression effect on ischemia-reperfusion induced arrythmia in rats; assay type: in vivo, rat; settings: Table 2-2; 5 mg/kg by gavage; solvent group 57.1
Description: [Suppression Effect on Ischemia-Reperfusion Induced Arrythmia in Rats]
The test compounds were administered to rats starved from a day before by gavage at a dosage of 10 mL/kg under an awaken condition. The rats were anesthetized with 60 mg/kg (i.p.) of sodium pentobarbital after 35 minutes passed from the administration, and were fixed on a warmed sheet in supine position. The body temperature was kept at 37° C. during the experiment, and artificial respiration was started under a condition of 15 mL/Kg and 55 strokes/minutes. […] Then, the left chest was open, and the left major coronary artery at an atrium side was sewed using a needle with a thread in order to ligate the coronary artery. After stabilizing for about 10 minutes (after 60 minutes passed from the administration), the coronary artery was ligated for 5 minutes, and re-perfused for 10 minutes thereafter. The ligation of the coronary artery was conducted by inserting a suture through a snare made of a polyethylene tube and pulling the both ends of the suture, followed by pressing the snare onto the heart. The re-perfusion was conducted by removing the snare. The aortic blood pressure was measured with a pressure transducer. An electrocardiogram was led by a standard lead II. […] After the completion of the experiments, generation of ventricular fibrillation was confirmed for each individual using an analysis software running on the personal computer, and incidence (%) of the ventricular fibrillation was determined for each administration group.

female Crj(SD)IGS rats = settings: female, Crj(SD)IGS, rat, in vivo, po, 14 days

SMILES | IC50 [1] [µM] | PQ Distance (rate of change) [2] | QRS Width (rate of change) [2] | Incidence (%) of the ventricular fibrillation [3] [%] | daily dosage at which no fatal cases were observed (female Crj(SD)IGS rats) [mg/kg]
CC(C)Oc1ccc(N(C)CCC2(O)CCN(Cc3ccc(OC(F)(F)F)cc3)CC2)cc1 [Example 236, 4-[2-[N-methyl-N-(4-isopropoxyphenyl)amino]ethyl]-1-(4-trifluoromethoxyphenylmethyl)piperidin-4-ol dihydrochloride] | 0.3 |  |  |  | 
CC(C)Oc1ccc(N(C)CCC2(O)CCN(Cc3ccc(Br)cc3F)CC2)cc1 [Example 240, 1-(4-bromo-2-fluorophenylmethyl)-4-[2-[N-methyl-N-(4-isopropoxyphenyl)amino]ethyl]piperidin-4-ol dihydrochloride] | 0.7 | — (The rate of change at two minutes after administration is 15% or less as compared with that before administration.) | — (The rate of change at two minutes after administration is 15% or less as compared with that before administration.) | 0.0 | 
CCCCOc1ccc(N(C)CC2(O)CCN(Cc3ccccc3)CC2)cc1 [Example 210, 1-benzyl-4-[N-(4-n-butoxyphenyl)-N-methylamino]-methylpiperidin-4-ol monomaleate] | 0.9 |  |  |  | 
COC(=O)c1ccc(CN2CCC(O)(CCN(C)c3ccc(OC(C)C)cc3)CC2)cc1 [Example 233, 1-[4-(methoxycarbonyl)phenylmethyl]-4-[2-[N-methyl-N-(4-isopropoxyphenyl)amino]ethylipiperidin-4-oldihydrochloride] |  | — (The rate of change at two minutes after administration is 15% or less as compared with that before administration.) | — (The rate of change at two minutes after administration is 15% or less as compared with that before administration.) | 28.6 | ≤ 50
CCCCOc1ccc(N(C)CCC2(O)CCN(CCc3ccc(F)cc3F)CC2)cc1 [Example 183, 4-[2-[N-(4-n-butoxyphenyl)-N-methylamino]ethyl]-1-[2-(2,4-difluorophenyl)ethyl]piperidin-4-ol dihydrochloride] | 1 |  |  |  | 
CC(C)Oc1ccc(N(C)CCC2(O)CCN(Cc3ccc(Br)cc3)CC2)cc1 [Example 220, 1-(4-bromophenylmethyl)-4-[2-[N-methyl-N-(4-isopropoxyphenyl)amino]ethyl]piperidin-4-ol dihydrochloride] | 0.7 |  |  |  | 
CC(C)Oc1ccc(N(C)CCC2(O)CCN(Cc3ccc(C(F)(F)F)cc3)CC2)cc1 [Example 221, 4-[2-[N-methyl-N-(4-isopropoxyphenyl)amino]ethyl]-1-[4-(trifluoromethyl)phenylmethyl]piperidin-4-ol dihydrochloride] | 0.3 |  |  |  | 
CC(C)Oc1ccc(N(C)CCC2(O)CCN(Cc3cccs3)CC2)cc1 [Example 254, 4-[2-[N-methyl-N-(4-isopropoxyphenyl)amino]ethyl]-1(2-thienylmethyl)piperidin-4-ol dihydrochloride] |  | — (The rate of change at two minutes after administration is 15% or less as compared with that before administration.) | — (The rate of change at two minutes after administration is 15% or less as compared with that before administration.) |  | 
CCCCOc1ccc(N(C)CCC2(O)CCN(CCc3ccc(F)cc3)CC2)cc1 [Example 176, 4-[2-[N-(4-n-butoxyphenyl)-N-methylamino]ethyl]-1-[2-(4-fluorophenyl)ethyl]piperidin-4-ol dihydrochloride] | 0.9 | — (The rate of change at two minutes after administration is 15% or less as compared with that before administration.) | — (The rate of change at two minutes after administration is 15% or less as compared with that before administration.) |  | 
